Measurements from patent US9120861B2, “Functional enhancement of antimicrobials” (Mississippi State University, priority 2008, dated 2015).
“Also recorded” adds a separate entry of the source.

Key:
[1] = thin layer chromatography (TLC) lipid II binding assay; settings: iodine stain; FIG. 8 and FIG. 9
Text: In FIG. 8 and FIG. 9, a thin layer chromatography (TLC) lipid II binding assay for native and modified nisin A and gallidermin is shown, respectively. The method of the present invention enables direct visualization for the loss of lipid II binding. […] Nisin is not as stable as gallidermin at higher temperatures.

M. luteus = assay: bioassay plate overlaid with M. luteus (bacterial clearing); assay type: cell-based; settings: 5 μL spotted onto a plate overlaid with M. luteus; FIG. 6
Protocol: We performed a 2-mercaptoethanol addition to mutacin 1140 at pH 7.3 in Tris buffer at room temperature for 2 hours. FIG. 5 is a RP-HPLC chromatogram of the native mutacin 1140, designated by the black line with triangles, overlaid on the chromatogram of the 2-mercaptoethanol modified mutacin 1140 (B-Me mutacin), which is designated by the grey line with circles. The modification changes the retention time of the native molecule to the left, a slightly more hydrophilic solvent (more water relative to acetonitrile). The large peak in the flow through was determined, by smell, to be 2-mercaptoethanol. The two small sharp peaks following the flow peak, which both have an absorbance in the 280 nm range, appears to be contaminants in the 2-mercaptoethanol solution. They also appeared in Nisin A modified by the same 2-mercaptoethanol labeling procedure. Nisin has no aromatic residues to account for this absorbance. […] In the future, these 2-mercatoethanol peaks will be removed by washing the sample with ice cold ether, which will extract the thiol compound leaving our peptide in solution. We spotted 5 μL of the native mutacin and the B-Me mutacin onto a plate overlaid with M. luteus. […] We also performed the same reaction with ethanethiol following the same procedure outline above. […]

**Q.** With “ethanethiol labeled nisin: nisin following addition of the organosulfur compound ethanethiol” as the substance, how does the “lipid II binding (retention of lipid II at the origin of the TLC plate)” value (shortened to “lipid II binding”) [1] read?
**A.** Its value is “maintains lipid II binding activity; also recorded: diminished capacity to retain lipid II at the origin”.

**Q.** For gallidermin, which “lipid II binding” value [1] is on record?
**A.** Its value is “retain lipid II at the origin”.

**Q.** With mutacin 1140 as the substance, how does the “bactericidal activity (bacterial clearing, inhibition of bacterial growth)” value (M. luteus) read?
**A.** Its value is “bacterial clearing”.

**Q.** With nisin A as the substance, how does the “lipid II binding” value [1] read?
**A.** The value was “retain lipid II at the origin”.
